In ChEMBL document CHEMBL1132549, “Design and structure-activity relationship of a new class of potent VEGF receptor tyrosine kinase inhibitors” (J Med Chem, 1999):
The source made the active and inactive calls. The calls are words filed in the database; no cut-off is given here.

Legend:
HUVEC = experiment: Inhibition of unstimulated HUVEC cell proliferation; format: functional, cell-based; conditions: Homo sapiens
[1] = Mouse plasma levels are obtained 24 hr after oral administration of 100 mg/kg of compound.; format: ADME, organism-based; parameters: dose 100 mg/kg, route oral; conditions: read-out: Plasma level
[2] = Mouse plasma levels are obtained 6 hr after oral administration of 100 mg/kg of compound.; format: ADME, organism-based; parameters: dose 100 mg/kg, route oral; conditions: read-out: Plasma level
[3] = molecular target: Vascular endothelial growth factor receptor 2 (Homo sapiens, UniProt P35968)
Sequence of Vascular endothelial growth factor receptor 2 (P35968 whole entry): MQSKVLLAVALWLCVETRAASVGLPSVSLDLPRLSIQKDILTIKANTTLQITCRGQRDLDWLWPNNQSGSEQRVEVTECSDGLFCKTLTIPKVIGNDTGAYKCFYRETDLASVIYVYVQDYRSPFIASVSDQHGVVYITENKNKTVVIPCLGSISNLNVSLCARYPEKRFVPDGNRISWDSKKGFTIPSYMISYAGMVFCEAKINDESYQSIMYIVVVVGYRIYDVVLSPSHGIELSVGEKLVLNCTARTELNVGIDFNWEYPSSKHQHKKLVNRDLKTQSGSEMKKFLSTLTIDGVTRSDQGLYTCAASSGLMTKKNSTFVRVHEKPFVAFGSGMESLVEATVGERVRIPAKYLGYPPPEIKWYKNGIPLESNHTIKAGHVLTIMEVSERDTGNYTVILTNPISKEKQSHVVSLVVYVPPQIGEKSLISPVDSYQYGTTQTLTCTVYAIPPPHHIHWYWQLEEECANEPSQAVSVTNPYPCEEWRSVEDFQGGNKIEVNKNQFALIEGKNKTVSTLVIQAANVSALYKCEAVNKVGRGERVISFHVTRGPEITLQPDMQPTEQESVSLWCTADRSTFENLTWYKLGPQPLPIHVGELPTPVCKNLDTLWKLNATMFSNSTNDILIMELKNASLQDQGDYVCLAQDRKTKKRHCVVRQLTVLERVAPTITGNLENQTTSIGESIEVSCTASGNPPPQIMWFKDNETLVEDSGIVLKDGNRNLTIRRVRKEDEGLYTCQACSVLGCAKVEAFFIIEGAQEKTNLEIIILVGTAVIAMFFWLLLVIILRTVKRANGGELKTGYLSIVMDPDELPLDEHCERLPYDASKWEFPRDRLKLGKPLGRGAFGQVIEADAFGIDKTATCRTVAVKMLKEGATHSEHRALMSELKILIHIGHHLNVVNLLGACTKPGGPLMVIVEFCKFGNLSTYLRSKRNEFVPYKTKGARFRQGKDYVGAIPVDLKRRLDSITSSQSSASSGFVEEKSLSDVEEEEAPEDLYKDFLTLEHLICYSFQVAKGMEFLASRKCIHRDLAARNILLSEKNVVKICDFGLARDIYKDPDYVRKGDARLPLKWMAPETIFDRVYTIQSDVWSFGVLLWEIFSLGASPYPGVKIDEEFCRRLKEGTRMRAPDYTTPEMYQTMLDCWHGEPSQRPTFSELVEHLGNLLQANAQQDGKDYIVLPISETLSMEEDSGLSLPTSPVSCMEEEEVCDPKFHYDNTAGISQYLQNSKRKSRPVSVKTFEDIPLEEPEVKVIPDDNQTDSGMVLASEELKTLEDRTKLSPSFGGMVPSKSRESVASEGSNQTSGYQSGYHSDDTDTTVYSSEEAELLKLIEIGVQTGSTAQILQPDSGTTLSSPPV

[4] = molecular target: Fibroblast growth factor receptor 1 (Homo sapiens, UniProt P11362)
Sequence of Fibroblast growth factor receptor 1 (P11362 whole entry): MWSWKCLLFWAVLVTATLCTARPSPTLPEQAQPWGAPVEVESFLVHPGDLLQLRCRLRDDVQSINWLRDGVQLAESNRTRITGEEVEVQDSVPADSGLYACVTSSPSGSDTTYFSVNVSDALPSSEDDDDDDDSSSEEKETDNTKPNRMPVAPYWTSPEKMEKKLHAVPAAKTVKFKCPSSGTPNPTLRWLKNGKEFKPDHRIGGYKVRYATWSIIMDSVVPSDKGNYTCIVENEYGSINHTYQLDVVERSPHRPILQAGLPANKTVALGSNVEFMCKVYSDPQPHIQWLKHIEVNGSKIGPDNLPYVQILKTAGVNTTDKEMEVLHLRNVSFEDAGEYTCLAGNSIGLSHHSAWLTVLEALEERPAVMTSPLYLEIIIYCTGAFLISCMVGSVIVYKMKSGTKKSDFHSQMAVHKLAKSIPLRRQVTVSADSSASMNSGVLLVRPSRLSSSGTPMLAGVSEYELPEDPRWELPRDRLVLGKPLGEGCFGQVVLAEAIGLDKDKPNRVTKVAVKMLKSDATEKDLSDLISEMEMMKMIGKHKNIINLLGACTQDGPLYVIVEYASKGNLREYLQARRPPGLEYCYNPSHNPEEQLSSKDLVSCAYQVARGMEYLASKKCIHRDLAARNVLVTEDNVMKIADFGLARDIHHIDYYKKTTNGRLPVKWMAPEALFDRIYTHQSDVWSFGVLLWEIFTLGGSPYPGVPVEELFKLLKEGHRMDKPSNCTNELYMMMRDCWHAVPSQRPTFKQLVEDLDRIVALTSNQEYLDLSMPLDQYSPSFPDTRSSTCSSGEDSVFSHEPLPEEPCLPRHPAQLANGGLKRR

Rattus norvegicus [5] = experiment: Percent inhibition of VEGF-mediated estradiol benzoate-induced rat uterus weight gain at 100 mg/kg oral dose; format: functional
[6] = molecular target: Vascular endothelial growth factor receptor 1 (Homo sapiens, UniProt P17948)
Sequence of Vascular endothelial growth factor receptor 1 (P17948 whole entry): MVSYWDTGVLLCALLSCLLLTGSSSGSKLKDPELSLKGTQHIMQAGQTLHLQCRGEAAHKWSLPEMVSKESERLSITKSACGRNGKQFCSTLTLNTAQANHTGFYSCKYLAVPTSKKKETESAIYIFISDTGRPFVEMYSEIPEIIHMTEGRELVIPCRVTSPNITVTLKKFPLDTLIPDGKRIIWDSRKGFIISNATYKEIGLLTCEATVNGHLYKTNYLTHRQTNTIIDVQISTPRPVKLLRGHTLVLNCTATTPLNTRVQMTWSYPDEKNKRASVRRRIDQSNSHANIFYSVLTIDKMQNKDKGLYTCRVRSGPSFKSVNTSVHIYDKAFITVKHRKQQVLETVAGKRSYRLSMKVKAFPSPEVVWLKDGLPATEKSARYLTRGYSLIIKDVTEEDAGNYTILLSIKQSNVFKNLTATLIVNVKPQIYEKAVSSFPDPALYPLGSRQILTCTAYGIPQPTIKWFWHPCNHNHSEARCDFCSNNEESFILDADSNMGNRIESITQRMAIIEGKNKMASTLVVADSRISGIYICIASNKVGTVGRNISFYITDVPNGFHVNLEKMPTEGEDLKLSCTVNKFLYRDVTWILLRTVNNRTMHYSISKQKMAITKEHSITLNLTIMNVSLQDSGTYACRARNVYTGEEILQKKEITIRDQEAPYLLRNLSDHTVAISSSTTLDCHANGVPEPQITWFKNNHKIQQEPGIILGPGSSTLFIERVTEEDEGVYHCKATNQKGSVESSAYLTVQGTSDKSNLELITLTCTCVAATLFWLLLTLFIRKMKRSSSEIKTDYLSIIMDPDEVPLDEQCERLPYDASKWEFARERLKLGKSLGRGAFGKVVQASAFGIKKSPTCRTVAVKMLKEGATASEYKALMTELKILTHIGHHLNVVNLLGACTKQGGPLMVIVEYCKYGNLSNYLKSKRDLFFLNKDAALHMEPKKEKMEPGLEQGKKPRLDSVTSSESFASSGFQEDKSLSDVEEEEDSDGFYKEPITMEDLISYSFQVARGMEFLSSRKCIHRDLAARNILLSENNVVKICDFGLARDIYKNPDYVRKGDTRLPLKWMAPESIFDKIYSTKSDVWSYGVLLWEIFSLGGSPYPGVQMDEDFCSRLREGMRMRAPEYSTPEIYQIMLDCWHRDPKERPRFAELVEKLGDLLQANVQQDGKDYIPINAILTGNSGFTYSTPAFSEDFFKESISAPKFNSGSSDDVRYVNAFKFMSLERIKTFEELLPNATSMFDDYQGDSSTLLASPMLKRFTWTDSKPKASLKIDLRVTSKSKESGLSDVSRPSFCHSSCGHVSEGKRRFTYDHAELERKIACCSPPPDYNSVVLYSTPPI

Rattus norvegicus [7] = experiment: Percent inhibition of VEGF-mediated estradiol benzoate-induced rat uterus weight gain at 100 mg/kg oral dose; NA is Not Active; format: functional, organism-based; parameters: dose 100 mg/kg
[8] = molecular target: Fibroblast growth factor receptor (Homo sapiens, UniProt P22607+P11362+P22455+P21802); conditions: huvec
[9] = molecular target: Vascular endothelial growth factor receptor (Homo sapiens, UniProt P17948+P35916+P35968); conditions: huvec
Rattus norvegicus [10] = experiment: Percent inhibition of VEGF-mediated estradiol benzoate-induced rat uterus weight gain at 60 mg/kg oral dose; format: functional

Row | Structure (SMILES) | IC50 [3] [nM] | IC50 [4] [nM] | IC50 [6] [nM] | other results
1 | COc1cc2c(Nc3ccc(Cl)cc3F)ncnc2cc1OCCn1ccnn1 |  |  |  | IC50 (HUVEC): 5000 nM; concentration at 24 h [1]: 10 µM; concentration at 6 h [2]: 49 µM
2 | COc1cc2ncnc(Nc3ccc(Cl)cc3F)c2cc1OC | 100 | 7000 |  | inhibition in vivo at 100 mg/kg (Rattus norvegicus [5]): 34%
3 | COCCOc1cc2nccc(Nc3ccc(Cl)cc3F)c2cc1OC | 10 | 9300 | 300 | concentration at 6 h [2]: 3 µM
4 | COCCOc1cc2ncnc(Nc3ccc(Cl)cc3F)c2cc1OC | 7 | 27000 | 400 | concentration at 24 h [1]: < 0.1 µM; inhibition in vivo at 100 mg/kg (Rattus norvegicus [5]): 31%; concentration at 6 h [2]: 12 µM
5 | COc1cc2ncnc(Nc3ccccc3F)c2cc1OC | 2700 | > 100000 | 26000 | 
6 | COCC(=O)Nc1cc2ncnc(Nc3ccc(Cl)cc3F)c2cc1OC | > 100000 | > 50000 | > 100000 | 
7 | COCCOc1cc2ncnc(Nc3cccc(O)c3)c2cc1OC | < 5 | 7000 | 30 | inhibition (Rattus norvegicus [7]): inactive
8 | COc1cc2ncnc(Nc3ccc(F)c(Cl)c3)c2cc1OC | 800 | > 100000 | > 100000 | 
9 | COc1cc2ncnc(Nc3cccc(O)c3)c2cc1OC |  | 11000 | 200 | 
10 | COc1cc2c(Nc3ccc(Cl)cc3F)ncnc2cc1OCCCCN1CCOCC1 | 40 | 1500 | 300 | 
11 | COc1cc2ncnc(Nc3ccc(F)cc3F)c2cc1OC | 2900 | 58000 | 22000 | 
12 | COc1cc2c(Nc3ccc(Cl)cc3F)ncnc2cc1OCCN1CCOCC1 | 40 | 19000 | 1100 | 
13 | COc1cc2c(Nc3ccc(Cl)cc3F)ncnc2cc1OCc1ccncc1 | 60 | > 33000 | 1200 | 
14 | COc1cc2c(Nc3ccc(Cl)cc3F)ncnc2cc1OCCOCCN1CCOCC1 | 60 | 20000 | 500 | concentration at 24 h [1]: < 0.1 µM; concentration at 6 h [2]: 11 µM
15 | COc1cc2ncnc(Nc3ccc(I)cc3Cl)c2cc1OC |  |  | > 33000 | 
16 | COCC(=O)Nc1cc2ncnc(Nc3cc(O)c(C)cc3F)c2cc1OC | 300 | > 100000 | 300 | 

Row | Structure (SMILES) | IC50 [3] [nM] | IC50 [4] [nM] | IC50 [6] [nM] | other results
17 | COCCOc1ccc2c(Nc3ccc(Cl)cc3F)ncnc2c1 |  | 16000 | 1500 | 
18 | COCCOc1cc2nncc(Nc3cc(O)c(Cl)cc3F)c2cc1OC |  |  | 50 | 
19 | COCCOc1cc2ncnc(Nc3cc(O)c(Cl)cc3F)c2cc1OC | < 2 | 7400 | < 2 | IC50 [8]: 800 nM; IC50 (HUVEC): 5000 nM; IC50 [9]: 4 nM; concentration at 24 h [1]: < 0.1 µM; concentration at 6 h [2]: < 0.1 µM
20 | COc1cc2c(Nc3c(F)cc(Br)cc3F)ncnc2cc1OCCn1ccnn1 | 40 |  | 800 | IC50 [8]: 100 nM; IC50 (HUVEC): 1000 nM; IC50 [9]: 20 nM
21 | COc1cc2c(Nc3ccc(Cl)cc3F)ncnc2cc1OC1CCN(C)CC1 | 1500 | 40000 | 15000 | 
22 | COCCOc1cc2nncc(Nc3ccc(Cl)cc3F)c2cc1OC |  |  | 63000 | 
23 | COc1cc2ncnc(Nc3cc(O)c(C)cc3F)c2cc1OC | 3 | 2500 | 30 | inhibition in vivo at 60 mg/kg (Rattus norvegicus [10]): 80%; concentration at 24 h [1]: < 0.2 µM; concentration at 6 h [2]: < 0.2 µM
24 | COCCOc1cc2ncnc(Nc3ccc(Cl)cc3F)c2cc1OCCOC | 60 | > 100000 | 900 | 
25 | COc1cc2c(Nc3ccc(Cl)cc3F)ncnc2cc1OCCCN1CCOCC1 | 9 | 6700 |  | concentration at 24 h [1]: 0.8 µM; inhibition in vivo at 100 mg/kg (Rattus norvegicus [5]): 59%; concentration at 6 h [2]: 4 µM
26 | COc1cc2c(Nc3ccc(C#N)cc3F)ncnc2cc1OCCn1ccnn1 | 300 | 45000 | 8100 | IC50 [8]: 3000 nM; IC50 (HUVEC): > 10000 nM; IC50 [9]: 600 nM
27 | COc1cc2ncnc(Nc3ccc(I)cc3F)c2cc1OC |  |  | 800 | 
28 | COc1cc2ncnc(Nc3ccc(Cl)cc3)c2cc1OC | 800 | > 100000 | 11000 | 
29 | COCCOc1cc2nccc(Nc3cc(O)c(Cl)cc3F)c2cc1OC | < 2 | 1400 | 3 | 
30 | COc1cc2c(Nc3ccc(Cl)cc3F)ncnc2cc1OCCN(C)c1ccncc1 | 6 | 1600 | 100 | 
31 | COc1cc2c(Nc3ccc(Cl)cc3F)ncnc2cc1OCCn1ccnc1 |  |  |  | concentration at 24 h [1]: < 0.1 µM; concentration at 6 h [2]: 11 µM
32 | COc1cc2c(Nc3ccc(Br)cc3F)ncnc2cc1OCCn1ccnn1 [ZD-4190 FREE BASE] | 30 | > 100000 | 700 | IC50 [8]: 1500 nM; IC50 (HUVEC): > 10000 nM
